# From US9850225B2, “Compounds useful as immunomodulators” (BRISTOL-MYERS SQUIBB COMPANY, priority 2014, dated 2017)
# Biological target: PD-1/PD-L1 interaction (PD-1-Ig / PD-L1-His) (Homo sapiens (Human), UniProt Q9NZQ7)
# Experiment: PD-1/PD-L1 Homogenous Time-Resolved Fluorescence (HTRF) binding assay
# Conditions: PD-1/PD-L1 HTRF binding assay; numeric value; read-out: Range or IC50
# From the text: The ability of the compounds of formula (I) to bind to PD-L1 was investigated using a PD-1/PD-L1 Homogenous Time-Resolved Fluorescence (HTRF) binding assay.
# Homogenous Time-Resolved Fluorescence (HTRF) Binding Assay.
# The interaction of PD-1 and PD-L1 can be assessed using soluble, purified preparations of the extracellular domains of the two proteins. The PD-1 and PD-L1 protein extracellular domains were expressed as fusion proteins with detection tags, for PD-1, the tag was the Fc portion of Immunoglobulin (PD-1-Ig) and for PD-L1 it was the 6 histidine motif (PD-L1-His). All binding studies were performed in an HTRF assay buffer consisting of dPBS supplemented with 0.1% […] bovine serum albumin and 0.05% (v/v) Tween-20. For the h/PD-L1-His binding assay, inhibitors were pre-incubated with PD-L1-His (10 nM final) for 15 m in 4 μl of assay buffer, followed by addition of PD-1-Ig (20 nM final) in 1 μl of assay buffer and further incubation for 15 m. HTRF detection was achieved using europium crypate-labeled anti-Ig (1 nM final) and allophycocyanin (APC) labeled anti-His (20 nM final). Antibodies were diluted in HTRF detection buffer and 5 μl was dispensed on top of the binding reaction. […] Additional binding assays were established between the human proteins PD-1-Ig/PD-L2-His (20 & 5 nM, respectively) and CD80-His/PD-L1-Ig (100 & 10 nM, respectively). […]
# Chain of PD-1/PD-L1 interaction (PD-1-Ig / PD-L1-His) (Q9NZQ7 other isoform, or with tags, fused parts or gaps): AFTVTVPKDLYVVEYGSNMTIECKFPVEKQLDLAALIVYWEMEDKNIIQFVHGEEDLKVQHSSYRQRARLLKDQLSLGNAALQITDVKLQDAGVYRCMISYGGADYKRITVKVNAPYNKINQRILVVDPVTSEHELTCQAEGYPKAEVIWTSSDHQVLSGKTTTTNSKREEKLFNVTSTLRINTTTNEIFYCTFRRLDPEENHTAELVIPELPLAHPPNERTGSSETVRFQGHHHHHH
row,IC50,SMILES
1,828 nM,"CC(=O)NCCNCc1ccc(OCc2cccc(-c3ccccc3)c2C)cc1OCc1cccc(OC(F)(F)F)c1 [Example 1082, N-(2-((4-((2-methyl-[1,1′-biphenyl]-3-yl)methoxy)-2-((3-(trifluoromethoxy)benzyl)oxy)benzyl)amino)ethyl)acetamide]"

# Same assay, conditions: PD-1/PD-L1 HTRF binding assay; value given as range class; read-out: Range or IC50
row,SMILES,IC50
1,"CC(=O)NCCNCc1ccc(OCc2cccc(-c3ccccc3)c2C)cc1OCc1ccc(F)cc1 [Example 1075, N-(2-((2-((4-fluorobenzyl)oxy)-4-((2-methyl-[1,1′-biphenyl]-3-yl)methoxy)benzyl)amino)ethyl)acetamide]",100 to 20000 nM
2,"CC(=O)NCCNCc1ccc(OCc2cccc(-c3ccccc3)c2C)cc1OCc1cccc(Oc2ccccc2F)c1 [Example 1077, N-(2-((2-((3-(2-fluorophenoxyl)benzyl)oxy)-4-((2-methyl-[1,1′-biphenyl]-3-yl)methoxy)benzyl)amino)ethyl)acetamide]",100 to 20000 nM
3,"CC(=O)NCCNCc1ccc(OCc2cccc(-c3ccccc3)c2C)cc1OCc1cccc(Oc2ccc(F)cc2)c1 [Example 1078, N-(2-((2-((3-(4-fluorophenoxyl)benzyl)oxy)-4-((2-methyl-[1,1′-biphenyl]-3-yl)methoxy)benzyl)amino)ethyl)acetamide]",100 to 20000 nM
4,"CC(=O)NCCNCc1ccc(OCc2cccc(-c3ccccc3)c2C)cc1OCc1cc(C(F)(F)F)ccc1F [Example 1080, N-(2-((2-((2-fluoro-5-(trifluoromethyl)benzyl)oxy)-4-((2-methyl-[1,1′-biphenyl]-3-yl)methoxy)benzyl)amino)ethyl)acetamide]",100 to 20000 nM
5,"CC(=O)NCCNCc1ccc(OCc2cccc(-c3ccccc3)c2C)cc1OCc1cc(F)cc(C(F)(F)F)c1 [Example 1081, N-(2-((2-((3-fluoro-5-(trifluoromethyl)benzyl)oxy)-4-((2-methyl-[1,1′-biphenyl]-3-yl)methoxy)benzyl)amino)ethyl)acetamide]",100 to 20000 nM
6,"CC(=O)NCCNCc1ccc(OCc2cccc(-c3ccccc3)c2C)cc1OCc1ccc2nc(C(F)(F)F)cc(Cl)c2c1 [Example 1083, N-(2-((2-((4-chloro-2-(trifluoromethyl)quinolin-6-yl)methoxy)-4-((2-methyl-[1,1′-biphenyl]-3-yl)methoxy)benzyl)amino)ethyl)acetamide]",100 to 20000 nM
7,"CC(=O)NCCNCc1ccc(OCc2cccc(-c3ccccc3)c2C)cc1OCc1ccc(S(C)(=O)=O)cc1 [Example 1084, N-(2-((4-((2-methyl-[1,1′-biphenyl]-3-yl)methoxy)-2-((4-(methylsulfonyl)benzyl)oxy)benzyl)amino)ethyl)acetamide]",100 to 20000 nM
8,"CC(=O)NCCNCc1ccc(OCc2cccc(-c3ccccc3)c2C)cc1OCc1ccccc1OC(F)F [Example 1085, N-(2-((2-((2-(difluoromethoxy)benzyl)oxy)-4-((2-methyl-[1,1′-biphenyl]-3-yl)methoxy)benzyl)amino)ethyl)acetamide]",100 to 20000 nM
9,"COc1cccc(COc2cc(OCc3cccc(-c4ccccc4)c3C)ccc2CNCCNC(C)=O)c1 [Example 1086, N-(2-((2-((3-methoxybenzyl)oxy)-4-((2-methyl-[1,1′-biphenyl]-3-yl)methoxy)benzyl)amino)ethyl)acetamide]",100 to 20000 nM
10,"CC(=O)NCCNCc1ccc(OCc2cccc(-c3ccccc3)c2C)cc1OCc1ccccc1OC(F)(F)F [Example 1087, N-(2-((4-((2-methyl-[1,1′-biphenyl]-3-yl)methoxy)-2-((2-(trifluoromethoxy)benzyl)oxy)benzyl)amino)ethyl)acetamide]",100 to 20000 nM
11,"CC(=O)NCCNCc1ccc(OCc2cccc(-c3ccccc3)c2C)cc1OCc1ccc(OC(F)F)cc1 [Example 1088, N-(2-((2-((4-(difluoromethoxy)benzyl)oxy)-4-((2-methyl-[1,1′-biphenyl]-3-yl)methoxy)benzyl)amino)ethyl)acetamide]",100 to 20000 nM
12,"CC(=O)NCCNCc1ccc(OCc2cccc(-c3ccccc3)c2C)cc1OCc1ccc(-c2ccccc2C#N)cc1 [Example 1089, N-(2-((2-((2′-cyano-[1,1′-biphenyl]-4-yl)methoxy)-4-((2-methyl-[1,1′-biphenyl]-3-yl)methoxy)benzyl)amino)ethyl)acetamide]",100 to 20000 nM
13,"COc1ccc(COc2cc(OCc3cccc(-c4ccccc4)c3C)ccc2CNCCNC(C)=O)cc1 [Example 1090, N-(2-((2-((4-methoxybenzyl)oxy)-4-((2-methyl-[1,1′-biphenyl]-3-yl)methoxy)benzyl)amino)ethyl)acetamide]",100 to 20000 nM
14,"CC(=O)NCCNCc1ccc(OCc2cccc(-c3ccccc3)c2C)cc1OCc1cc(F)cc(Cl)c1 [Example 1091, N-(2-((2-((3-chloro-5-fluorobenzyl)oxy)-4-((2-methyl-[1,1′-biphenyl]-3-yl)methoxy)benzyl)amino)ethyl)acetamide]",100 to 20000 nM

# More lines, now with the values ahead:
row,IC50,SMILES
1,100 to 20000 nM,"CC(=O)NCCNCc1ccc(OCc2cccc(-c3ccccc3)c2C)cc1OCc1cc(C(F)(F)F)cc(C(F)(F)F)c1 [Example 1061, N-(2-((2-((3,5-bis(trifluoromethyl)benzyl)oxy)-4-((2-methyl-[1,1′-biphenyl]-3-yl)methoxy)benzyl)amino)ethyl)acetamide]"
2,100 to 20000 nM,"CC(=O)NCCNCc1ccc(OCc2cccc(-c3ccccc3)c2C)cc1OCc1cc(F)cc(F)c1 [Example 1062, N-(2-((2-((3,5-difluorobenzyl)oxy)-4-((2-methyl-[1,1′-biphenyl]-3-yl)methoxy)benzyl)amino)ethyl)acetamide]"
3,100 to 20000 nM,"CC(=O)NCCNCc1ccc(OCc2cccc(-c3ccccc3)c2C)cc1OCc1cccc2ccccc12 [Example 1063, N-(2-((4-((2-methyl-[1,1′-biphenyl]-3-yl)methoxy)-2-(naphthalen-1-ylmethoxy)benzyl)amino)ethyl)acetamide]"
4,100 to 20000 nM,"CC(=O)NCCNCc1ccc(OCc2cccc(-c3ccccc3)c2C)cc1OCc1ccc(F)cc1F [Example 1064, N-(2-((2-((2,4-difluorobenzyl)oxy)-4-((2-methyl-[1,1′-biphenyl]-3-yl)methoxy)benzyl)amino)ethyl)acetamide]"
5,100 to 20000 nM,"CC(=O)NCCNCc1ccc(OCc2cccc(-c3ccccc3)c2C)cc1OCc1cc(C)cc(C)c1 [Example 1065, N-(2-((2-((3,5-dimethylbenzyl)oxy)-4-((2-methyl-[1,1′-biphenyl]-3-yl)methoxy)benzyl)amino)ethyl)acetamide]"
6,100 to 20000 nM,"CC(=O)NCCNCc1ccc(OCc2cccc(-c3ccccc3)c2C)cc1OCc1ccccc1C(F)(F)F [Example 1066, N-(2-((4-((2-methyl-[1,1′-biphenyl]-3-yl)methoxy)-2-((2-(trifluoromethyl)benzyl)oxy)benzyl)amino)ethyl)acetamide]"
7,100 to 20000 nM,"COC(=O)c1ccc(COc2cc(OCc3cccc(-c4ccccc4)c3C)ccc2CNCCNC(C)=O)cc1 [Example 1067, methyl 4-((2-(((2-acetamidoethyl)amino)methyl)-5-((2-methyl-[1,1′-biphenyl]-3-yl)methoxy)phenoxy)methyl)benzoate]"
8,100 to 20000 nM,"CC(=O)NCCNCc1ccc(OCc2cccc(-c3ccccc3)c2C)cc1OCc1ccc(Cl)cc1 [Example 1068, N-(2-((2-((4-chlorobenzyl)oxy)-4-((2-methyl-[1,1′-biphenyl]-3-yl)methoxy)benzyl)amino)ethyl)acetamide]"
9,100 to 20000 nM,"CC(=O)NCCNCc1ccc(OCc2cccc(-c3ccccc3)c2C)cc1OCc1ccc(Cl)c(Cl)c1 [Example 1069, N-(2-((2-((3,4-dichlorobenzyl)oxy)-4-((2-methyl-[1,1′-biphenyl]-3-yl)methoxy)benzyl)amino)ethyl)acetamide]"
10,100 to 20000 nM,"CC(=O)NCCNCc1ccc(OCc2cccc(-c3ccccc3)c2C)cc1OCc1cccc(C)c1F [Example 1070, N-(2-((2-((2-fluoro-3-methylbenzyl)oxy)-4-((2-methyl-[1,1′-biphenyl]-3-yl)methoxy)benzyl)amino)ethyl)acetamide]"
11,100 to 20000 nM,"CC(=O)NCCNCc1ccc(OCc2cccc(-c3ccccc3)c2C)cc1OCc1cccc(F)c1F [Example 1071, N-(2-((2-((2,3-difluorobenzyl)oxy)-4-((2-methyl-[1,1′-biphenyl]-3-yl)methoxy)benzyl)amino)ethyl)acetamide]"
12,100 to 20000 nM,"CC(=O)NCCNCc1ccc(OCc2cccc(-c3ccccc3)c2C)cc1OCc1cccc(Cl)c1F [Example 1072, N-(2-((2-((3-chloro-2-fluorobenzyl)oxy)-4-((2-methyl-[1,1′-biphenyl]-3-yl)methoxy)benzyl)amino)ethyl)acetamide]"
13,100 to 20000 nM,"CC(=O)NCCNCc1ccc(OCc2cccc(-c3ccccc3)c2C)cc1OCc1cccc(C(=O)c2ccccc2)c1 [Example 1073, N-(2-((2-((3-benzoylbenzyl)oxy)-4-((2-methyl-[1,1′-biphenyl]-3-yl)methoxy)benzyl)amino)ethyl)acetamide]"
14,100 to 20000 nM,"CC(=O)NCCNCc1ccc(OCc2cccc(-c3ccccc3)c2C)cc1OCc1cccc2cccnc12 [Example 1074, N-(2-((4-((2-methyl-[1,1′-biphenyl]-3-yl)methoxy)-2-(quinolin-8-ylmethoxy)benzyl)amino)ethyl)acetamide]"

# Same assay, conditions: read-out: Range or IC50
row,SMILES,IC50
1,CC(=O)NCCNCc1ccc(OCc2cccc(-c3ccccc3)c2C)cc1OCc1cccc([N+](=O)[O-])c1 [Example 1076],10 to 100 nM
